Reference: ChEMBL document CHEMBL4818987, “Recent advances of podophyllotoxin/epipodophyllotoxin hybrids in anticancer activity, mode of action, and structure-activity relationship: An update (2010-2020)” (Eur J Med Chem, 2020)

Columns and labels:
[1] = molecular target: Prostaglandin G/H synthase 2 (Mus musculus, UniProt Q05769); assay: Inhibition of mouse COX2
[2] = system: RAW264.7; assay: Antiproliferative activity against mouse RAW264.7 cells incubated for 48 hrs by CCK8 assay; format: functional, cell-based; details: RAW264.7, 48 h
[3] = Antiproliferative activity against human HCA7 cells incubated for 48 hrs by CCK8 assay; format: functional, cell-based; details: HCA-7, 48 h
[4] = molecular target: Prostaglandin G/H synthase 2 (Mus musculus, UniProt Q05769, V509I); assay: Inhibition of mouse COX2 V523I mutant
Chain of Prostaglandin G/H synthase 2 (Mus musculus, UniProt Q05769, V509I) (Q05769 18-604 V509I limits assumed): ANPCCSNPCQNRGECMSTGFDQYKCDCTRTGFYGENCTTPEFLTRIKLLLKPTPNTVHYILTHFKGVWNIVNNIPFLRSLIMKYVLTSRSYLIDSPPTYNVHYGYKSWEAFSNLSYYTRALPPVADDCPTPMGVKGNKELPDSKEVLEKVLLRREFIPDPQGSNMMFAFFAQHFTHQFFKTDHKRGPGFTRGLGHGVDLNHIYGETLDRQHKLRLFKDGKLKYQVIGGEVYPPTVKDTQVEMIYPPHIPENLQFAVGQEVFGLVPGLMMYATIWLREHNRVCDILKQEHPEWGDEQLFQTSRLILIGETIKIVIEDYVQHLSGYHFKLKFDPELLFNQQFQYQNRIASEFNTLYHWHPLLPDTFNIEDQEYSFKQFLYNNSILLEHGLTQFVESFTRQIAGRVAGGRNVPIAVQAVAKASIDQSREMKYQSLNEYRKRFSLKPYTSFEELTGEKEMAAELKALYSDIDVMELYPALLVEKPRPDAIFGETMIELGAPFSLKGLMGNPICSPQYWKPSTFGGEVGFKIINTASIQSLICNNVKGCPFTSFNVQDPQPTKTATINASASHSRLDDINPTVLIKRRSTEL

[5] = system: RKO; assay: Antiproliferative activity against human RKO cells incubated for 48 hrs by CCK8 assay; format: functional, cell-based
[6] = molecular target: Prostaglandin G/H synthase 2 (Mus musculus, UniProt Q05769, S516A); assay: Inhibition of mouse COX2 S530A mutant
Chain of Prostaglandin G/H synthase 2 (Mus musculus, UniProt Q05769, S516A) (Q05769 18-604 S516A limits assumed): as the sequence (Q05769 18-604 V509I limits assumed) above, with I492V, S499A counted along it

[7] = system: NCI-H292; assay: Antiproliferative activity against human NCI-H292 cells incubated for 48 hrs by CCK8 assay; format: functional, cell-based; details: NCI-H292, 48 h
[8] = molecular target: Prostaglandin G/H synthase 2 (Mus musculus, UniProt Q05769, R106Q); assay: Inhibition of mouse COX2 R120Q mutant
Chain of Prostaglandin G/H synthase 2 (Mus musculus, UniProt Q05769, R106Q) (Q05769 18-604 R106Q limits assumed): as the sequence (Q05769 18-604 V509I limits assumed) above, with R89Q, I492V counted along it

[9] = Antitumor activity against human HNSCC-1483 cells xenografted in mouse assessed as reduction in tumor growth at 2 mg/kg administered for 14 days and measured on day 2 to day 15 by electronic caliper method relative to control; format: functional; details: MDA-1483, 336 h, time 14 day, read-out: TGI
[10] = system: MDA-MB-231; assay: Antiproliferative activity against human MDA-MB-231 cells incubated for 48 hrs by CCK8 assay; format: functional, cell-based; details: MDA-MB-231, 48 h
[11] = system: HCT-116; assay: Antiproliferative activity against human HCT116 cells incubated for 48 hrs by CCK8 assay; format: functional, cell-based; details: HCT-116, 48 h
[12] = system: IMR-5; assay: Antiproliferative activity against human IMR5 cells incubated for 48 hrs by CCK8 assay; format: functional, cell-based; details: IMR-5, 48 h
[13] = Cytotoxicity against human MUM-2B cells incubated for 72 hrs by CCK8 assay; format: functional, cell-based
[14] = Potency index, ratio of etoposide IC50 to test compound IC50 for antiproliferative activity against human C918 cells; format: functional
[15] = Potency index, ratio of etoposide IC50 to test compound IC50 for antiproliferative activity against human MUM-2B cells; format: functional
[16] = Cytotoxicity against human C918 cells incubated for 72 hrs by CCK8 assay; format: functional, cell-based; details: C918, 72 h
[17] = system: SW480; assay: Potency index, ratio of etoposide IC50 to test compound IC50 for antiproliferative activity against human SW480 cells; format: functional
[18] = system: A549; assay: Potency index, ratio of etoposide IC50 to test compound IC50 for antiproliferative activity against human A549 cells; format: functional
[19] = system: MCF7; assay: Antiproliferative activity against human MCF7 cells incubated for 48 hrs by MTT assay; format: functional, cell-based; details: MCF7, 48 h
[20] = system: MCF7; assay: Potency index, ratio of etoposide IC50 to test compound IC50 for antiproliferative activity against human MCF7 cells; format: functional
[21] = system: SW480; assay: Antiproliferative activity against human SW480 cells incubated for 48 hrs by MTT assay; format: functional, cell-based; details: SW480, 48 h
[22] = system: HL-60; assay: Antiproliferative activity against human HL-60 cells incubated for 48 hrs by MTT assay; format: functional, cell-based; details: HL-60, 48 h
[23] = system: HL-60; assay: Potency index, ratio of etoposide IC50 to test compound IC50 for antiproliferative activity against human HL60 cells; format: functional
[24] = system: SMMC-7721; assay: Potency index, ratio of etoposide IC50 to test compound IC50 for antiproliferative activity against human SMMC7721 cells; format: functional
[25] = system: SMMC-7721; assay: Antiproliferative activity against human SMMC-7721 cells incubated for 48 hrs by MTT assay; format: functional, cell-based; details: SMMC-7721, 48 h
[26] = system: A549; assay: Antiproliferative activity against human A549 cells incubated for 72 hrs by MTT assay; format: functional, cell-based; details: A549, 72 h
[27] = Antiproliferative activity against human HCCLM3 cells incubated for 48 hrs by MTT assay; format: functional, cell-based; details: HCCLM3, 48 h
[28] = system: HepG2; assay: Antiproliferative activity against human HepG2 cells incubated for 48 hrs by MTT assay; format: functional, cell-based; details: HepG2, 48 h
[29] = system: HepG2; assay: Antitumor activity against human HepG2 cells xenografted in BALB/c nude mouse assessed as tumor weight suppression at 1 mg/kg, ip administered every 6 days for 20 days and measured every 2 days by digital caliper method relative to control; format: functional, organism-based; details: time 20 day
[30] = system: K562; assay: Antiproliferative activity against human K562 cells by MTT assay; format: functional, cell-based
[31] = system: KB; assay: Cytotoxicity against human Vincristine-resistant KB cells incubated for 72 hrs by SRB method; format: functional, cell-based
[32] = system: K562; assay: Antiproliferative activity against human K562 cells incubated for 48 hrs by MTT assay; format: functional, cell-based; details: K562, 48 h
[33] = Cytotoxicity against human KBv200 cells by MTT assay; format: functional, cell-based; details: KBv200, Uterine cervix
[34] = system: NCI-H1993; assay: Antiproliferative activity against human NCI-H1993 cells incubated for 48 to 72 hrs by MTT assay; format: functional, cell-based
[35] = system: K562/A02; assay: Cytotoxicity against human K562/A02 cells by SRB assay; format: functional, cell-based
[36] = system: K562/Adr; assay: Antiproliferative activity against human K562/ADR cells incubated for 72 hrs by CCK8 assay; format: functional, cell-based
[37] = system: K562/A02; assay: Antiproliferative activity against human K562/A02 cells by MTT assay; format: functional, cell-based
[38] = system: HOS; assay: Cytotoxicity against human HOS cells by MTT assay; format: functional
[39] = system: BGC-823; assay: Antiproliferative activity against human BGC-823 cells incubated for 48 hrs by MTT assay; format: functional, cell-based; details: BGC-823, 48 h
[40] = system: BGC-823; assay: Antiproliferative activity against human BGC-823 cells incubated for 72 hrs by MTT assay; format: functional, cell-based; details: BGC-823, 72 h
[41] = system: K562; assay: Cytotoxicity against human K562 cells by SRB assay; format: functional, cell-based
[42] = system: LoVo; assay: Cytotoxicity against human LoVo cells by MTT assay; format: functional, cell-based
[43] = system: SK-OV-3; assay: Antiproliferative activity against human SKOV3 cells incubated for 48 hrs by MTT assay; format: functional, cell-based; details: SK-OV-3, 48 h
[44] = system: MCF7; assay: Cytotoxicity against human MCF7 cells by MTT assay; format: functional, cell-based
[45] = system: KB; assay: Cytotoxicity against human KB cells incubated for 72 hrs by SRB method; format: functional, cell-based
[46] = system: A549; assay: Antiproliferative activity against human A549 cells incubated for 48 hrs by MTT assay; format: functional, cell-based; details: A549, 48 h
[47] = system: HCT-116; assay: Antiproliferative activity against human HCT116 cells incubated for 3 days by MTT assay; format: functional, cell-based; details: HCT-116, 72 h
[48] = system: B16; assay: Antiproliferative activity against […] cells incubated for 48 to 72 hrs by MTT assay; format: functional, cell-based; details: Mus musculus
[49] = system: HeLa; assay: Antiproliferative activity against human HeLa cells incubated for 48 hrs by MTT assay; format: functional, cell-based
[50] = system: K562; assay: Antiproliferative activity against human K562 cells incubated for 72 hrs by CCK8 method; format: functional, cell-based; details: K562, 72 h
[51] = Plasma clearance in Sprague-Dawley rat at 2.5 mg/kg, iv measured after 5 to 1440 mins by LC-MS/MS analysis; format: ADME, organism-based; design: dose 2.5 mg/kg, time upper 1440 min, time lower 5 min; details: 2.5 mg/kg
[52] = system: HeLa; assay: Antiproliferative activity against human HeLa cells by MTT assay; format: functional, cell-based
[53] = system: MGC-803; assay: Antiproliferative activity against human MGC-803 cells incubated for 48 hrs by MTT assay; format: functional, cell-based; details: MGC-803, 48 h
[54] = system: HeLa; assay: Cytotoxicity against human HeLa cells by MTT assay; format: functional, cell-based
[55] = system: KB; assay: Cytotoxicity against human KB cells by MTT assay; format: functional, cell-based
[56] = Mean initial plasma concentration in Sprague-Dawley rat at 2.5 mg/kg, iv measured after 5 to 1440 mins by LC-MS/MS analysis; format: ADME, organism-based; details: Rattus norvegicus
[57] = system: K562; assay: Antiproliferative activity against human K562 cells incubated for 72 hrs by CCK8 assay; format: functional, cell-based; details: K562, 72 h
[58] = system: HepG2; assay: Antiproliferative activity against human HepG2 cells incubated for 48 to 72 hrs by MTT assay; format: functional, cell-based
[59] = system: A549; assay: Antiproliferative activity against human A549 cells incubated for 3 days by MTT assay; format: functional, cell-based; details: A549, 72 h
[60] = AUCinfinity in Sprague-Dawley rat at 2.5 mg/kg, iv measured after 5 to 1440 mins by LC-MS/MS analysis; format: ADME, organism-based; design: route intravenous, dose 2.5 mg/kg, time upper 1440 min, time lower 5 min; details: in vivo, time 5-1440 min, dose 2.5 mg/kg
[61] = system: MKN-45; assay: Antiproliferative activity against human MKN-45 cells incubated for 48 to 72 hrs by MTT assay; format: functional, cell-based
[62] = system: MKN-45; assay: Antiproliferative activity against human MKN-45 cells incubated for 72 hrs by MTT assay; format: functional, cell-based; details: time 72 hrs

Chain of Prostaglandin G/H synthase 2 (Mus musculus, UniProt Q05769) (Q05769 whole entry): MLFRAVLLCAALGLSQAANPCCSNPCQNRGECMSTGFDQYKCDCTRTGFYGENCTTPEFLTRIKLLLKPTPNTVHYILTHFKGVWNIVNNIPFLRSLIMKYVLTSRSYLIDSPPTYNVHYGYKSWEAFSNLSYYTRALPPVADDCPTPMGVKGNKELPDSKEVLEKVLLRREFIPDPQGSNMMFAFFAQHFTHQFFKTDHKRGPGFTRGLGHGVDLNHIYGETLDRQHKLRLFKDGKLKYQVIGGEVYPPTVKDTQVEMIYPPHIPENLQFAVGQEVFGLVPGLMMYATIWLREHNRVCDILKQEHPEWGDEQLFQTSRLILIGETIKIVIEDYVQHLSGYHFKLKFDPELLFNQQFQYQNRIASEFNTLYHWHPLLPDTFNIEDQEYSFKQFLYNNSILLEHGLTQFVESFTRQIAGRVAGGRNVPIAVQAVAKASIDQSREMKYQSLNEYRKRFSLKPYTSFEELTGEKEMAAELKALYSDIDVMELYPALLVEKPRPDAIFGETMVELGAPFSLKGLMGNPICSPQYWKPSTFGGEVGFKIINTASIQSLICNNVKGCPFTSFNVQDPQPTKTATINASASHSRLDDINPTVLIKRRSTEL

COc1ccc2c(c1)c(CC(=O)NCCCCNC(=O)CCC(=O)O[C@H]1c3cc4c(cc3[C@@H](c3cc(OC)c(OC)c(OC)c3)[C@H]3C(=O)OC[C@@H]31)OCO4)c(C)n2C(=O)c1ccc(Cl)cc1
IC50 [1]: 90 nM | IC50 [2]: < 30 nM | IC50 [3]: < 30 nM | IC50 [4]: 90 nM | IC50 [5]: < 30 nM | IC50 [6]: 90 nM | IC50 [7]: < 30 nM | IC50 [8]: 90 nM | inhibition in vivo at 2 mg/kg [9]: 50% | IC50 [10]: < 30 nM | IC50 [11]: < 30 nM | IC50 [12]: < 30 nM

COc1cc(/C=C/c2ccc(OCC(=O)O[C@H]3c4cc5c(cc4[C@@H](c4cc(OC)c(OC)c(OC)c4)[C@H]4C(=O)OC[C@@H]43)OCO5)cc2)cc(OC)c1
IC50 [13]: 347 nM | Ratio IC50 [14]: 34.2 | Ratio IC50 [15]: 3.6 | IC50 [16]: 81 nM

COc1cc([C@@H]2c3cc4c(cc3[C@@H](n3cc(CO[C@H]5O[C@H](CO)[C@H](O)[C@H](O)[C@H]5O)nn3)[C@H]3COC(=O)[C@H]23)OCO4)cc(OC)c1O
Ratio IC50 [17]: 2 | Ratio IC50 [18]: 2 | IC50 [19]: 2850 nM | Ratio IC50 [20]: 2 | IC50 [21]: 2850 nM | IC50 [22]: 2850 nM | Ratio IC50 [23]: 2 | Ratio IC50 [24]: 2 | IC50 [25]: 2850 nM | IC50 [26]: 2850 nM

COc1cc([C@@H]2c3cc4c(cc3[C@@H](OC(=O)CCSC(=S)N/N=C/c3ccccn3)[C@H]3COC(=O)[C@H]23)OCO4)cc(OC)c1O
IC50 [27]: 11000 nM | IC50 [28]: 3890 nM | Activity [29]: 93.8%

COc1cc([C@@H]2c3cc4c(cc3[C@@H](O[C@@H]3O[C@@H]5CO[C@@H](C)O[C@H]5[C@H](O)[C@H]3O)[C@H]3COC(=O)[C@H]23)OCO4)cc(OC)c1O [ETOPOSIDE]
IC50 [30]: 22800 nM | IC50 [31]: 2270 nM | IC50 [32]: 183 nM | IC50 [33]: 1710 nM | IC50 [34]: > 910 nM | GI50 [35]: 1080 nM | IC50 [36]: 413 nM | IC50 [37]: 1980 nM | GI50 [38]: 36600 nM | IC50 [39]: 1060 nM | IC50 [40]: 2880 nM | IC50 [41]: 1980 nM | IC50 [42]: 1710 nM | IC50 [43]: 14800 nM | IC50 [44]: 1710 nM | IC50 [45]: 1740 nM | IC50 [19]: 310 nM | IC50 [46]: 1060 nM | IC50 [21]: 764 nM | IC50 [22]: 310 nM | IC50 [47]: 4900 nM | IC50 [48]: > 910 nM | IC50 [49]: 8120 nM | IC50 [50]: 1060 nM | AUC [51]: 933 ng·h/mL | IC50 [52]: 310 nM | IC50 [53]: 1060 nM | IC50 [54]: 1710 nM | IC50 [55]: 1710 nM | IC50 [28]: 310 nM | IC50 [25]: 310 nM | C0 [56]: 16.8 µM | IC50 [57]: 3390 nM | IC50 [58]: > 910 nM | IC50 [59]: 4900 nM | AUC [60]: 3180 ng·h/mL | IC50 [61]: > 910 nM | Activity [62]: 12.8%
